Reference: patent US10131717B2, “Topically administered, skin-penetrating glycosaminoglycan formulations suitable for use in cosmetic and pharmaceutical applications” (London Health Sciences Centre Research Inc., priority 2010, dated 2018)

Columns and labels:
skin barrier = conditions: Kaya et al.; cited from earlier work
[1] = test system: female BL6 wild-type mice; experiment: Comparison of ability to penetrate the skin barrier of mice (hyaluronan staining; treated vs untreated area); assay type: in vivo, mouse
Excerpt: HA-PE-2, prepared as described in Example 3, hyaluronan mixed with, but not covalently linked to, lipids in the lecithins present in Example 3 (see Example 1), and hyaluronan alone (no additional phospholipid), were each formulated with a NIVEA Creme cosmetic base cream (1:1, v/v) as described in Example 4. The creams were then applied to the shaved backs (0.18 g HA-PE-2/application, 40×30 mm shaved area) of 9-month old female BL6 wild-type mice once daily for 4 days. After this time, one group of animals was euthanized and processed according to the procedure described in Example 9. A second group of animals were left without further treatment for an additional […] and euthanized/processed as described in Example 9 on day 7.
Since the amount of endogenous hyaluronan in skin can vary with location, internal controls were designed to evaluate hyaluronan staining of treated and control skin were developed to confirm the difference between the treated vs. untreated skin area. HA-PE-2 and control creams (hyaluronan only) were applied to the shaved backs of mice as previously described. Areas of treatment were marked (hair in the adjacent untreated margins was removed with Nair™ and the punch aligned to include the treated and untreated region; tissue punches were orientated in small tissue baskets to keep the tissue in the correct orientation throughout processing and marked with a histology marker pen) and tissue was harvested/processed as previously described (Example 9).

human dermal fibroblasts = experiment: Hyaluronan cell coats on cultured human dermal fibroblasts (fluorescent nanosphere exclusion); assay type: cell-based; conditions: hyaluronan 500 μg/mL (350 kDa) or HA-PE-1 25 μg/mL, 1 hour; compared to PBS control; FIG. 1
Experimental: The suitability of the present compositions was assessed by determining its ability to encase/surround cultured dermal fibroblasts grown from a punch biopsy of human skin. Punch biopsies were placed in a sterile tissue culture dish (35×10 mm, tissue culture dish) and cut with small (e.g., 19 G) sterile needles into small fragments. The fragments were allowed to dry briefly (e.g., no more than 10 minutes) to the bottom of the tissue culture dish to promote adherence of the tissue fragments. Dulbecco's modified Eagles Medium (DMEM), supplements with 10% fetal calf serum (FCS) was then gently added and the culture is then placed in a humidified 37° C. incubator supplemented with 5% CO2 for approximately one week. […]
In the images shown in FIG. 1, the hyaluronan cell coat is observed as a dark space since small fluorescent beads are excluded by the coat as denoted by the arrow within the image. Cells without coats […] are entirely covered by the fluorescent beads.

[2] = test system: senescent human fibroblasts; experiment: Percent of cells with hyaluronan coats and coat size in senescent human fibroblasts; assay type: cell-based; conditions: FIG. 2
Experimental: Modified hyaluronan (HA-PE-1), prepared according to Example 2, or hyaluronan alone (350 kDA; 10 mg/mL stock solution in saline) was added to senescent human fibroblasts in increasing concentrations (0-100 μg/mL).
The effect of the addition of modified hyaluronan (HA-PE-1; 50 μg/mL) vs. hyaluronan alone (50 μg/mL) on the cell coat area of the cells was quantified using image analysis (Elements 3.1, Nikon). […] Values are means and S.E.M. for 10 samples.

hyaluronan staining in keratinocytes following cessation of treatment ([1]; day 7, treatment stopped after day 4, FIG. 9, 10): remained negligible
Substance: hyaluronan
retention in skin of topically applied hyaluronan (literature) (skin barrier): poorly retained in the epidermal layer
hyaluronan staining / hyaluronan penetrating the skin barrier ([1]; creams once daily for 4 days, p<0.000001, FIG. 9, 10): negligible amounts of hyaluronan penetrating the skin barrier
hyaluronan staining at the application edge, treated vs untreated area of skin ([1]; internal control, p<0.000001, FIG. 11, 12): a distinct margin of staining was not observed
size of the hyaluronan coat (exclusion of fluorescent beads) (human dermal fibroblasts): little additional effect
concentration at which the percentage of cells with coats reached a plateau ([2]; 0-100 μg/mL): 10 µg/mL
percentage of cells that exhibited hyaluronan coats ([2]; increasing concentrations 0-100 μg/mL): fewer cells with hyaluronan coats
